This note sets out measurements from US20050004044A1, “Use of orsaponin [3beta, 16beta, 17 alpha-trihydroxycholost-5-en-22-one 16-0-(2-0-4-methoxybenzoyl-beta-D-xylopyranosyl)-(1->3)-(2-0-acetyl-alpha-L-arabinopyranoside)] or OSW-1 and its derivatives for cancer therapeutics” (priority 2003, published 2005).

In one test the test system is ML-1 leukemia cells. In words: MTT cell growth inhibition, ML-1. It counts as cell-based, human. The conditions noted are these: ML-1, 72 h. As to the method:
(§1) 1. MTT Assays. For these assays either cancer cell lines were used. Alternatively, mononuclear cells from peripheral blood samples of CLL patients or normal donors were separated by Ficoll Hipaque fractionation and resuspended in DMEM complete medium. Malignant cells from various human cell lines (usually at 5×10^4 cells/ml) or mononuclear cells from peripheral blood of leukemia patients and healthy donors (1×10^6 cells/ml) were incubated in either αMEM or RPMI 1640 with or without various concentrations of OSW-1 in the range of 0-10 nM. Each experimental condition was done in triplicate. After the indicated number of days (usually 3 days or 72 hours) of exposure to OSW-1, cell survival was assessed by the addition of the MTT dye to the wells. The MTT dye changes its color depending on the presence of live cells in the well. Survival of cells under orsaponin treatment was evaluated as a percentage of control cell growth. Alternatively, one can also use the dye trypan-blue which penetrates dead cells thereby allowing one to count live cells under the microscope and estimating percentage survival.
(§2) Anticancer activities of Orsaponin and 17-deoxyorsaponin were examined in human leukemia cells (ML-1) and human lymphoma cells (Raji). Cells were incubated with various concentrations of Orsaponin and 17-deoxyorsaponin for 72 h, and cell growth inhibition was measured by MTT assay.
The effect of 17-deoxyorsaponin in human ovarian cancer cells was determined. SKOV3 ovarian cancer cells were incubated with various concentrations of 17-deoxyorsaponin for 72 h. Cell growth inhibition was measured by MTT assay (FIG. 17). […] The effect of 17-deoxyorsaponin in human acute myeloid leukemia cells was also examined. ML-1 leukemia cells were incubated with various concentrations of 17-deoxyorsaponin for 72 h and cell growth inhibition was measured using the MTT assay (FIG. 18).

Test [1] concerns pancreatic cancer (Panco-2) cells. In words: MTT cell growth inhibition, Panco-2. It counts as cell-based. Conditions: Mus musculus, Panco-2, 72 h. As to the method: as §1
(§3) The effect of Orsaponin and 17-deoxyorsaponin in pancreatic cancer cells was also assessed. […] Cell growth inhibition was measured by MTT assay.

The test system of test [2] is ovarian cancer SKOV3 cells. In words: MTT cell growth inhibition, SKOV3. It counts as cell-based. Conditions: Homo sapiens, SK-OV-3, SKOV3, 72 h. As to the method: FIG. 5. Effect of Orsaponin (OSW-1) on cell growth in human ovarian cancer cells (SKOV3). Human ovarian cancer SKOV3 cells were treated with the indicated concentrations of OSW-1 for 72 h. Cell growth inhibition was measured by the MTT assay. The IC50 value is approximately 0.2 nM under the experimental conditions.
1. MTT Assays. For these assays either cancer cell lines were used. Alternatively, mononuclear cells from peripheral blood samples of CLL patients or normal donors were separated by Ficoll Hipaque fractionation and resuspended in DMEM complete medium. […] After the indicated number of days (usually 3 days or 72 hours) of exposure to OSW-1, cell survival was assessed by the addition of the MTT dye to the wells. […] Survival of cells under orsaponin treatment was evaluated as a percentage of control cell growth. […]
OSW-1 Inhibits Growth of Ovarian Cancer Cells. […] Human ovarian cancer SKOV3 cells were treated with 0-10 nM OSW-1 for 72 h and cell growth inhibition was measured by the MTT assay.
The effect of 17-deoxyorsaponin in human ovarian cancer cells was determined. […] Cell growth inhibition was measured by MTT assay (FIG. 17). […] ML-1 leukemia cells were incubated with various concentrations of 17-deoxyorsaponin for 72 h and cell growth inhibition was measured using the MTT assay (FIG. 18).

The test system of another test is Raji cells (lymphoma). In words: MTT cell growth inhibition, Raji. It counts as cell-based, human. Conditions: Homo sapiens, 72 h. As to the method:
FIG. 2. Effect of Orsaponin (OSW-1) on cell growth in two human cancer cell lines including a leukemia and a lymphoma cell line. HL-60 (leukemia) and Raji cells (lymphoma) in exponentially growing phase were treated with the indicated concentrations of OSW-1 for 72 hours. Cell growth inhibition was measured by MTT assay.
Cells and Cell Lines. Various cancer cell lines were used including the human leukemia cell lines HL-60 and ML-1 cells; human lymphoma cell line Raji; human pancreatic cancer cells AsPC-1; and human ovarian cancer cells SKOV3; human colon cancer cells HCT116; as well as isolated CLL cells from patients; and lymphocytes from normal donors. Cells were grown and maintained as per protocols known in the art using appropriate cell culture media and supplements.
1. MTT Assays. For these assays either cancer cell lines were used. […] After the indicated number of days (usually 3 days or 72 hours) of exposure to OSW-1, cell survival was assessed by the addition of the MTT dye to the wells. […] Survival of cells under orsaponin treatment was evaluated as a percentage of control cell growth. […]
as §2

Test [3] concerns malignant glioma U87-MG cells. The test is described as follows: MTT cell growth inhibition, U87-MG glioma. It counts as cell-based, human. Conditions: U87-MG vs normal human astrocytes. As to the method:
as §1
To test the therapeutic selectivity of Orsaponin and 17-deoxyorsaponin, their effect on human brain tumor cells (U87 malignant glioma) and normal human astrocytes were compared. The normal human astrocytes were previously immortalized by transfection with hTER to allow a long-term culture in vitro. The antiproliferative effect of Orsaponin in human malignant glioma cells (U87-MG) and normal human astrocytes was examined. Cells were incubated with various concentrations of Orsaponin for 72 h. Cell growth inhibition was measured by MTT assay (FIG. 21).

A further test has as its system primary CLL cells. In words: cells. It counts as cell-based. Conditions: Homo sapiens, CLL cell, CLL cells, median of 11 patient samples; read-out: IC50 (nM), Median. As to the method: FIG. 7. Effect of Orsaponin (OSW-1) on cell survival in primary human leukemia cells isolated from patients with chronic lymphocytic leukemia (CLL). Freshly isolated primary CLL cells were incubated with the indicated concentrations of OSW-1 for 72 hours in vitro. Cell viability was measured by MTT assay. […] Data from representative experiments with CLL cells from three different patients are shown. A total of 23 CLL blood samples were tested for sensitivity to OSW-1 in the same fashion.
as §1
Reduction of Cell Viability in CLL-Patient-Derived Cells. […] Freshly isolated primary CLL cells were incubated with the 0-100 nM OSW-1 for 72 hours in vitro and cell viability was measured by the MTT assay.
Cytotoxic activity of 17-deoxyorsaponin was also assessed in a number of patient samples. Primary human leukemia cells isolated from 11 patients with chronic lymphocytic leukemia (CLL) were analyzed for cytotoxic activity of 17-deoxyorsaponin. […]

Test [4] relates to pancreatic cancer AsPC-1 cells. The test is described as follows: MTT cell growth inhibition, AsPC-1. It counts as cell-based, human. The conditions noted are these: Homo sapiens, ASPC1, 72 h, AsPC-1, 72 h. As to the method:
FIG. 3. Effect of Orsaponin (OSW-1) on cell growth in human pancreatic cancer cells. Human pancreatic cancer AsPC-1 cells were treated with the indicated concentrations of OSW-1 for 72 h or 96 h. Cell growth inhibition was measured by MTT assay.
FIG. 4. The anticancer activity of Orsaponin (OSW-1) is not affected by NFκB expression in pancreatic cancer cells. Human pancreatic cancer cells AsPC-1 with constitutive activation of NFκB or inactivation of NFκB by dominant negative IκBα (AsPC-1/IκBα-ND) were treated with the indicated concentrations of OSW-1 for 72 h. Cell growth inhibition was measured by MTT assay.
Cells and Cell Lines. Various cancer cell lines were used including the human leukemia cell lines HL-60 and ML-1 cells; human lymphoma cell line Raji; human pancreatic cancer cells AsPC-1; and human ovarian cancer cells SKOV3; human colon cancer cells HCT116; as well as isolated CLL cells from patients; and lymphocytes from normal donors. […]
1. […] After the indicated number of days (usually 3 days or 72 hours) of exposure to OSW-1, cell survival was assessed by the addition of the MTT dye to the wells. […] Survival of cells under orsaponin treatment was evaluated as a percentage of control cell growth. […]
as §3

For test [5], the system named is HCT116 p53+/+ colon cancer cells. In words: MTT cell growth inhibition, HCT116 p53+/+. It counts as cell-based. Conditions: Homo sapiens, HCT-116, 72 h. As to the method:
as §1
(§4) Anticancer activity of 17-deoxyorsaponin in human colon cancer cells was examined. HCT116 p53+/+ and HCT116 p53−/− human colon cancer cells were incubated with the various concentrations of 17-deoxyorsaponin for 72 h. Cell growth inhibition was measured by MTT assay.

The subject of test [6] is HCT116 p53−/− colon cancer cells. The test is described as follows: MTT cell growth inhibition, HCT116 p53−/−. It counts as cell-based. Conditions: Homo sapiens, HCT-116, 72 h. As to the method: as §1, §4

As to `COc1ccc(C(=O)OC2C(OC3C(O)COC(O[C@H]4C[C@H]5[C@@H]6CC=C7C[C@@H](O)CC[C@]7(C)[C@H]6CC[C@]5(C)[C@H]4[C@H](C)C(=O)CCC(C)C)C3OC(C)=O)OCC(O)C2O)cc1` (stereo partly shown) [17-deoxyorsaponin], the IC50 in the test on ML-1 leukemia cells (Homo sapiens, 72 h) is less than 0.1 nM; in the test on ML-1 leukemia cells it was roughly 0.2 nM; in test [1], 0.1 nM; in test [2] it was roughly 0.1 nM; in the test with Raji cells (lymphoma) it was less than 0.1 nM; with primary CLL cells, 0.37 nM. The IC50 in test [4] was 1 nM; in test [5] it was roughly 1 nM; in test [6], roughly 1 nM. Besides, in test [3], the “sensitivity of glioma cells compared with normal astrocytes” value is listed as “more sensitive”.

By IC50 is commonly meant the point on the concentration scale where inhibition reaches its midpoint.
